Assay in all cases: NCI-60 cell line screen, 48 h
The test system of test [1] is SK-MEL-28 melanoma.
The test system of test [2] is A549 NSCLC.
Test [3] concerns PC-3 prostate.
Test [4] concerns MOLT-4 leukemia.
The subject of test [5] is SF-539 CNS.
The subject of test [6] is EKVX NSCLC.
Test [7] concerns IGROV1 ovarian.
Test [8] has as its system LOX IMVI melanoma.
In test [9] the test system is NCI/ADR-RES ovarian.
The subject of test [10] is MCF7 breast.

These results are taken from PubChem BioAssay (NCI).

Structures are written as SMILES.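 Five compound concentrations were applied to cells in 96-well plates for 48 hours; endpoints were derived by simple linear interpolation of the resulting dose-response curve. GI50 is the concentration that inhibits growth by half. At the TGI there is no net growth.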

With `O=C(N1CCC(CN=c2cc3n(-c4ccc(Cl)cc4)c4ccccc4nc-3cc2Nc2ccc(Cl)cc2)CC1)N1CC1`, the GI50 is 0.519 µM in test [1]; 0.71 µM in test [2]; 1.63 µM in test [3]; 0.792 µM in test [4]; 1.63 µM in [5]; 1.53 µM in test [6]. Moreover, the TGI in test [1] stood at 0.981 µM; in [2] it was 11.7 µM; in test [3], 3.38 µM; in test [4], 3.91 µM; in [5], 3.13 µM; in test [6], 3.22 µM.

As to `CCOc1ccc(N=Nc2ccc3oc(=O)c(/C(C)=N\NC(=O)CC(=O)Nc4ccc(Cl)cc4)cc3c2)cc1`, the TGI in test [1] was > 100 µM; in test [2] it was 43.3 µM; in test [7], 45.4 µM; in [4], 28.8 µM; in test [5], 33.5 µM; in [6] it was 34.7 µM. Also, in test [8], the TGI was determined as 26.5 µM.

`CCOC(=O)C1(C(=O)OCC)CSC1`: the TGI in test [1], in test [9], in test [2], in test [3], in test [4] and in test [10] was > 100 µM in each case. Moreover, the TGI in test [8] was > 100 µM.

On to `CCSc1nc(N2CCCCC2)c2cn[nH]c2n1`, for which the GI50 in test [1] was 57.6 µM; in test [9] it was 92.5 µM; in test [2] it was 50.5 µM; in test [7], 47 µM; in test [3] it was 20.7 µM; in test [10] it was 22.8 µM. Besides, the GI50 in [5] is 12.4 µM; in test [6] it was 16.1 µM; in test [8], 55.2 µM. Further, the TGI in [1] is > 100 µM; in test [9], > 100 µM; in test [2], > 100 µM; in test [7], > 100 µM; in test [3] it was 79.1 µM; in test [10] it was 71.7 µM. The TGI was 48.3 µM in test [5], > 100 µM in test [6] and > 100 µM in test [8].

With `O=C(O)/C=C/c1cnc[nH]1`, the TGI in [1], in test [9], in test [2], in test [7], in [4] and in [10] was > 500 µM in each case. For the same compound, the TGI in [5], in [6] and in test [8] was > 500 µM throughout.
